The results in this text go back to article PMC6974622, “DeepMalaria: Artificial Intelligence Driven Discovery of Potent Antiplasmodials” (Frontiers in Pharmacology, 2020).

“Also recorded” adds a separate entry of the source.

The subject of experiment [1] is multidrug resistant P. falciparum strain Dd2. As to the kind of experiment: SYBR Green I Plasmodium growth inhibition assay (fixed concentration screen and EC50). Particulars: Plasmodium falciparum; Pf Dd2, 1 µM, 72 h; read-out: Inhibition One-point (%). It counts as cell-based, Plasmodium falciparum. How it is done:
P. falciparum cultures were maintained under standard culture conditions in RPMI 1640 medium supplemented with 25 mM HEPES, pH 7.4, 26 mM NaHCO3, 2% dextrose, 15 mg/L hypoxanthine, 25 mg/L gentamycin, and 0.5% Albumax II maintained at 37°C in 5% CO2 and 95% air. Initially, a fixed concentration phenotypic screening was performed against multidrug resistant P. falciparum strain Dd2 (resistant to chloroquine, pyrimethamine, and mefloquine) using a SYBR Green I assay ([Johnson et al., 2007]; [Vossen et al., 2010]). An EVO-150 robotic liquid handler (Tecan, Morrisville, NC) was used to aliquot compounds at a final concentration of 1 µM followed by addition of culture to 96-well plates (Greiner, Monroe, NC) at 1% parasitemia, 2% hematocrit. Plates were incubated for 72 h at 37°C in a humidified atmosphere 5% CO2/95% air prior to freezing. Plates were subsequently thawed and 1X SYBR Green I was added with lysis buffer (20 mM Tris-HCl, 0.08% saponin, 5 mM EDTA, 0.8% Triton X-100). After incubation at room temperature in dark for 1 h, the fluorescent emission was measured at excition and emission wavelengths of 485 nm and 530 nm, respectively, using a BioTek Synergy neo2 (Winooski, VT) plate reader. […] Curve fitting was performed using GraphPad Prism and EC50 value was determined for each compound.

For the next experiment, the system named is P. falciparum Dd2. Nature of the experiment: Stage-specific activity assay (Giemsa smears, YOYO-1 flow cytometry). In kind it is cell-based, Plasmodium falciparum. To be noted: synchronized Dd2, compound at 3X EC50 added at 6, 18, 30, 42 hpi. As for the experimental part:
P. falciparum Dd2 cell line was synchronized using a combination of 5% sorbitol and magnetic column separation as described ([Roberts et al., 2016]). Cultures at 2% parasitemia and 2% hematocrit were added to microtiter plate wells and measurements began 6 h post-invasion (6 hpi). Hit compounds were added at 3X EC50 concentration at specified time points. Controls are DHA (3X EC50) and untreated cultures. Giemsa-stained thin smears were made for each time point and an aliquot of the culture was fixed for flow cytometric analysis using 0.04% glutaraldehyde in PBS. After fixing and aspirating, cells were permeabilized with 0.25% Triton-100 followed by treatment with RNase (0.05 mg/ml) for 3 h. Next, YOYO 1 (10.24 µM) fluorescent dye was added and samples were analyzed ([Bouillon et al., 2013]) using Beckman Coulter (Indianapolis, IN) CytoFlex S flowcytometer.
A general note: Flow cytometry measures light scatter and fluorescence of single cells or particles in a stream.

The next experiment deals with Pf Dd2. Nature of the experiment: Rate of killing determination. To be noted: synchronized Dd2, exposure 6 or 12 h, parasitemia tracked for 6 days. In kind it is cell-based, Plasmodium falciparum. As for the experimental part: Pf Dd2 culture was synchronized as described ([Roberts et al., 2016]), plated into 24 well plates at 2% parasitemia and 2% hematocrit at 6 hpi. […] Each well was exposed to the inhibitor for either 6 or 12 h using dihydroartemisinin (DHA) (25 µM) and untreated culture as controls. After washing the compounds off, the media was changed twice a day. The parasitemia was tracked for 6 days after addition of compounds. Thin smears were stained with Giemsa, and parasitemia was counted using microscope.

The test system of experiment [2] is human hepatoma cell line HepG2. As to the kind of experiment: MTS based cytotoxicity assay (counter-screen for selectivity). It counts as cell-based. Particulars: 48 h. As for the experimental part: Selectivity was determined by counter-screening against human hepatoma cell line HepG2 in a MTS (3-(4,5-Dimethylthiazol-2-yl)-5-(3-carboxymethoxyphenyl)-2-(4-sulfophenyl)-2H-tetrazolium) based cytotoxicity assay (CellTiter 96® Aqueous One, Promega, Madison, WI) ([Riss et al., 2004]). Briefly, microtiter plates were seeded with 1,500 cells per well in a 384 well plate and incubated for 24 h at 37°C in 5% CO2/95% air atmosphere. The next day, compounds were added at seven different serially diluted concentrations starting at 25 µM d incubated for additional 48 h at stated conditions. MTS solution was next added to each well, incubated for additional 3 h at 37°C, and absorbance was read at 490 nm using BioTek Synergy neo 2 plate reader. Untreated cells served as control. Curve fitting was performed using GraphPad Prism and EC50 value was determined.

On to `CC(C)C[C@@H](N)C(=O)N1CCC2(CCCCCc3ccccc3OCCN(C)C2=O)CC1` [DC-9236, CC(C)C[C@@H](N)C(=O)N1CCC2(CC1)CCCCCC1=C(OCCN(C)C2=O)C=CC=C1], for which, in experiment [1], the inhibition at 1 µM was found to be 98%. Further, the Stage specific activity entry in the experiment with P. falciparum Dd2 is “active in late Troph and early Schizont; also recorded: inhibits primarily the mature schizonts”. Moreover, the Rate of killing entry in the experiment on Pf Dd2 is “higher elimination in the second life cycle; also recorded: inhibition in the second developmental cycle of Pf causing delayed death”. Moreover, the EC50 in experiment [2] turned out to be 6.5 µM.
Turning to `CCC1C2=NC(Cc3ccccc3)=C(O2)N(Cc2ccccc2)Cc2cn(nn2)CCCCN1Cc1ccccc1OCCN(C)C` (centres unmarked) [DC-9237, CCC1N(CC2=CC=CC=C2OCCN(C)C)CCCCN2C=C(CN(CC3=CC=CC=C3)C3=C(CC4=CC=CC=C4)N=C1O3)N=N2], the inhibition at 1 µM in experiment [1] turned out to be 95%. The Stage specific activity result with P. falciparum Dd2 was “inhibits all asexual stages of Plasmodium falciparum; also recorded: inhibits all asexual blood stages of Dd2 including the early ring stage”. Moreover, in the experiment on Pf Dd2, the Rate of killing result was “fast-acting; also recorded: inhibited growth at all asexual stages after 6 h of exposure and parasite population did not resume growth even after 6 days”. In experiment [2], the EC50 came out at 17 µM.

In general, inhibition refers to the share of the control response that was lost under treatment. The term EC50 denotes the concentration that produces a half-maximal response.
